From US20110275643A1, “AROYLQUINOLINE COMPOUNDS” (NATIONAL HEALTH RESEARCH INSTITUTES, priority 2010, published 2011)
Where two headings read alike, the source gives them in different places.

Tests used:
[1] = test system: KB-VIN10 cells (overexpression of P-gp170/MDR); experiment: In vitro cell growth inhibition, methylene blue dye assay, MDR-positive KB-VIN10 cells; type: cell-based, Human; conditions: Homo sapiens, read-out: IC50 on the proliferation of cells, KB-VIN10
Protocol: (§1) Human oral epidermoid carcinoma KB cells, non-small-cell lung carcinoma H460 cells, colorectal carcinoma HT29 cells and stomach carcinoma MKN45 cells were maintained in RMPI-1640 medium supplied with 5% fetal bovine serum (FBS). […] Cells in logarithmic phase were cultured at a density of 5000 cells/mL/well in a 24-well plate. KB-VIN10 cells were cultured in drug-free medium for 3 days prior to use. The cells were exposed to various concentrations of the test drugs for 72 hours. The methylene blue dye assay was used to evaluate the effect of the test compounds on cell growth (Finlay et al., 1984).

[2] = test system: colorectal carcinoma HT29 cells; experiment: In vitro cell growth inhibition, methylene blue dye assay, HT29 cells; type: cell-based, Human; conditions: Homo sapiens, read-out: IC50 on the proliferation of cells, HT29
Protocol: as §1

[3] = test system: stomach carcinoma MKN45 cells; experiment: In vitro cell growth inhibition, methylene blue dye assay, MKN45 cells; type: cell-based, Human; conditions: Homo sapiens, read-out: IC50 on the proliferation of cells, MKN45
Protocol: as §1

[4] = test system: non-small-cell lung carcinoma H460 cells; experiment: In vitro cell growth inhibition, methylene blue dye assay, H460 cells; type: cell-based, Human; conditions: Homo sapiens, read-out: IC50 on the proliferation of cells, H460
Protocol: as §1

[5] = test system: oral epidermoid carcinoma KB cells; experiment: In vitro cell growth inhibition, methylene blue dye assay, KB cells; type: cell-based, Human; conditions: Homo sapiens
Protocol: as §1

[6] = test system: five cancer cell lines (KB, H460, HT29, MKN45, KB-VIN10); experiment: Antiproliferative activity, mean over five cancer cell lines; type: cell-based, Human
Protocol: The synthesized compounds 5 to 17 were evaluated for antiproliferative activities against four carcinoma cells, oral epidermoid carcinoma KB cells, non-small-cell lung carcinoma H460 cells, colorectal carcinoma HT29 cells and stomach carcinoma MKN45 cells, as well as the MDR-positive cell lines KB-VIN10, that overexpressed P-gp 170/MDR (Table 1). The controls were compounds 1 and 3.
as §1

[7] = KB-VIN10 cells, 72 hours, mean ± SD
[8] = HT-29, HT29 cells, 72 hours, mean ± SD
[9] = MKN-45, MKN45 cells, 72 hours, mean ± SD
[10] = NCI-H460, H460 cells, 72 hours, mean ± SD
[11] = KB cells, 72 hours, mean ± SD, read-out: IC50 on the proliferation of cells, KB
[12] = read-out: 50% Inhibition concentration (IC50) on the proliferation of KB cells line, Table 2, KB cells

Structure (SMILES)	melting point [°C]	IC50 [5, 12] [µM]	other results
COc1cc(C(=O)c2cnc3ccccc3c2)cc(OC)c1OC [Compound 6, 3-(3′,4′,5′-trimethoxybenzoyl)quinoline]	107 to 109	–	IC50 [1, 7]: 1.1 ± 0.22 µM; IC50 [2, 8]: 1 ± 0.21 µM; IC50 [3, 9]: 0.562 ± 0.042 µM; IC50 [4, 10]: 1.6 ± 0.38 µM; IC50 [5, 11]: 1.8 ± 0.1 µM
COc1cc(C(=O)c2ccnc3ccccc23)cc(OC)c1OC [Compound 7, 4-(3′,4′,5′-trimethoxybenzoyl)quinoline]	109 to 110	–	IC50 ([1]; KB-VIN10, 72 h): 2.2 ± 0.6 µM; IC50 ([2]; HT-29, 72 h): 2.3 ± 0.48 µM; IC50 ([3]; MKN-45, 72 h): 0.92 ± 0.09 µM; IC50 ([4]; NCI-H460, 72 h): 3.8 ± 0.52 µM; IC50 ([5]; KB, 72 h, read-out: IC50 on the proliferation of cells, KB): 3.5 ± 0.7 µM
COc1cc(C(=O)c2cccc3ncccc23)cc(OC)c1OC [Compound 8, 5-(3′,4′,5′-trimethoxybenzoyl)quinoline]	145 to 147	–	IC50 [1, 7]: 2.3 ± 0.4 µM; IC50 [2, 8]: 2.8 ± 0.31 µM; IC50 [3, 9]: 1.2 ± 0.15 µM; IC50 [4, 10]: 3.8 ± 0.62 µM; IC50 [5, 11]: 2.9 ± 0.4 µM
COc1cc(C(=O)c2ccc3cccnc3c2)cc(OC)c1OC [Compound 10, 7-(3′,4′,5′-trimethoxybenzoyl)quinoline]	149 to 151	–	IC50 [1, 7]: > 10 µM; IC50 [2, 8]: > 10 µM; cytotoxicity / antiproliferative activity in words [6]: loss of cytotoxicity; IC50 [3, 9]: > 10 µM; IC50 [4, 10]: > 10 µM; IC50 [5, 11]: > 10 µM
COc1cc(C(=O)c2cccc3cccnc23)cc(OC)c1OC [Compound 11, 8-(3′,4′,5′-trimethoxybenzoyl)quinoline]	153 to 155	–	IC50 [1, 7]: 6 ± 0.8 µM; IC50 [2, 8]: 4.5 ± 1.1 µM; IC50 [3, 9]: 3.2 ± 0.7 µM; IC50 [4, 10]: 5 ± 0.92 µM; IC50 [5, 11]: 8.1 ± 0.7 µM
COc1cc(C(=O)c2ccnc3c(OC)cccc23)cc(OC)c1OC [Compound 13, 8-methoxy-4-(3′,4′,5′-trimethoxybenzoyl)quinoline]	162.5 to 164.1	–	IC50 [1, 7]: 0.165 ± 0.033 µM; IC50 [2, 8]: 0.163 ± 0.0287 µM; cytotoxicity / antiproliferative activity in words [6]: over an order of magnitude increase in activity over the parental compound 7; IC50 ([6]; Homo sapiens, mean of KB, H460, HT29, MKN45, KB-VIN10, read-out: mean IC50 value against five cancer cell lines): 0.164 µM; IC50 [3, 9]: 0.147 ± 0.0254 µM; IC50 [4, 10]: 0.193 ± 0.0353 µM; IC50 [5, 11]: 0.155 ± 0.0151 µM
COc1cc(C(=O)c2ccc3c(ccc[n+]3[O-])c2)cc(OC)c1OC [Compound 16, 6-(3′,4′,5′-trimethoxybenzoyl)quinoline N-oxide]	175 to 176	–	IC50 [1, 7]: 0.764 ± 0.111 µM; IC50 [2, 8]: 0.872 ± 0.0862 µM; fold reduction of activity compared with compound 9 ([6]; versus compound 9): > 10 fold; IC50 [3, 9]: 0.617 ± 0.085 µM; IC50 [4, 10]: 1.1 ± 0.15 µM; IC50 [5, 11]: 0.83 ± 0.172 µM
COc1cc(C(=O)c2ccc3c(ccc[n+]3C)c2)cc(OC)c1OC.[I-] [Compound 17, 6-(3′,4′,5′-trimethoxybenzoyl)-1-methylquinolinium iodide]	187 to 188	–	IC50 [1, 7]: > 10 µM; IC50 [2, 8]: > 10 µM; cytotoxicity / antiproliferative activity in words ([6]; five cancer cell lines): drastic loss of activity; IC50 [3, 9]: > 10 µM; IC50 [4, 10]: > 10 µM; IC50 [5, 11]: > 10 µM
COc1cc(C(=O)c2ccc3c(-c4ccc(O)cc4)c(OC)ccc3n2)cc(OC)c1OC [Compound 30, 5-(4″-hydroxyphenyl)-6-methoxy-2-(3′,4′,5′-trimethoxybenzoyl)quinoline]	201 to 203	> 10	–
COc1cc(C(=O)c2ccc3c(-c4ccncc4)c(OC)ccc3n2)cc(OC)c1OC [Compound 33, 6-methoxy-5-pyridinyl-2-(3′,4′,5′-trimethoxybenzoyl)quinoline]	203 to 205	0.472	–
COc1cc(C(=O)c2ccc3c(I)c(OC)ccc3n2)cc(OC)c1OC [Compound 34, 5-iodo-6-methoxy-2-(3′,4′,5′-trimethoxybenzoyl)quinoline]	202 to 204	0.451	–
COc1cc(C(=O)c2ccc3c(Br)c(OC)ccc3n2)cc(OC)c1OC [Compound 42, 5-bromo-6-methoxy-2-(3′,4′,5′-trimethoxybenzoyl)quinoline]	163 to 165	0.108	–
COc1cc(C(=O)c2ccc3c(C#N)c(OC)ccc3n2)cc(OC)c1OC [Compound 43, 5-cyano-6-methoxy-2-(3′,4′,5′-trimethoxybenzoyl)quinoline]	191 to 192	0.017	–
COc1cc(C(=O)c2ccc3c(C#CC(C)(C)O)c(OC)ccc3n2)cc(OC)c1OC [Compound 44, 5-(3″-hydroxy-3″-methylbut-1″-ynyl)-6-methoxy-2-(3′,4′,5′-trimethoxybenzoyl)quinoline]	151 to 153	0.495	–
COc1cc(C(=O)c2ccc3c(Cl)c(OC)ccc3n2)cc(OC)c1OC [Compound 47, 5-chloro-6-methoxy-2-(3′,4′,5′-trimethoxybenzoyl)quinoline]	176 to 177	0.045	–
COc1ccc(C(=O)c2ccc3c(OC)c(OC)c(OC)cc3n2)cc1 [Compound 49, 2-(4′-methoxybenzoyl)-5,6,7-trimethoxyquinoline]	103 to 105	> 1	–

Structure (SMILES)	melting point [°C]	IC50 [5, 12] [µM]	other results
COc1ccc(C(=O)c2ccc3c(OC)c(OC)c(OC)cc3n2)cc1F [Compound 50, 2-(3′-fluoro-4′-methoxybenzoyl)-5,6,7-trimethoxyquinoline]	137 to 139	> 10	–
COc1cc2nc(C(=O)c3ccc(F)cc3)ccc2c(OC)c1OC [Compound 51, 2-(4′-fluorobenzoyl)-5,6,7-trimethoxyquinoline]	145 to 146	–	–
COc1ccc(C(=O)c2ccnc3c(OC)c(OC)c(OC)cc23)cc1 [Compound 54, 4-(4′-methoxybenzoyl)-6,7,8-trimethoxyquinoline]	–	1.3	–
COc1cc(-c2ccc3c(N)c(OC)ccc3n2)cc(OC)c1OC [Compound 58, 5-amino-6-methoxy-2-(3′,4′,5′-trimethoxyphenyl)quinoline]	222 to 223	> 10	–
COc1cc(Oc2ccc3c(N)c(OC)ccc3n2)cc(OC)c1OC [Compound 60, 5-amino-6-methoxy-2-(3′,4′,5′-trimethoxyphenoxy)quinoline]	209 to 210	–	–
COc1cc(Nc2ccc3c(N)c(OC)ccc3n2)cc(OC)c1OC [Compound 62, 5-amino-6-methoxy-2-(3′,4′,5′-trimethoxyphenylamino)quinoline]	222 to 223	> 10	–
COc1ccc(-c2ccc3c(OC)c(OC)c(OC)cc3n2)cc1 [Compound 64, 2-(4′-methoxyphenyl)-5,6,7-trimethoxyquinoline]	136 to 137	> 10	–
COc1cc2nc(-c3ccc(N(C)C)cc3)ccc2c(OC)c1OC [Compound 65, 2-[4′-(N,N-dimethylamino)phenyl]-5,6,7-trimethoxyquinoline]	154 to 155	> 10	–
COc1ccc(-c2ccc3c(OC)c(OC)c(OC)cc3n2)cc1F [Compound 66, 2-(3′-fluoro-4′-methoxyphenyl)-5,6,7-trimethoxyquinoline]	129 to 130	> 10	–
COc1ccc(C(=O)c2ccnc3c(OC)c(OC)c(OC)cc23)cc1F [Compound 67, 4-(3′-fluoro-4′-methoxybenzoyl)-6,7,8-trimethoxyquinoline]	117 to 118	1.67	–
COc1cc2c(C(=O)c3ccc(N(C)C)cc3)ccnc2c(OC)c1OC [Compound 68, 4-[4′-(N,N-dimethyl)-benzoyl]-6,7,8-trimethoxyquinoline]	–	0.226	–
COc1cc(C(=O)c2ccc3nccnc3c2)cc(OC)c1OC [Compound 75, 6-(3′,4′,5′-trimethoxybenzoyl)quinoxaline]	149 to 151	–	–
COc1cc(Sc2ccc3c(N)c(OC)ccc3n2)cc(OC)c1OC [Compound 82, 5-amino-6-methoxy-2-(3′,4′,5′-trimethoxyphenylthio)quinoline]	–	< 0.01	–
COc1cc(S(=O)(=O)c2ccc3c(N)c(OC)ccc3n2)cc(OC)c1OC [Compound 84, 5-amino-6-methoxy-2-(3′,4′,5′-trimethoxyphenylsulfonyl)quinoline]	–	< 0.01	–
COc1cc(C(=O)c2ccc3c(O)c(OC)ccc3n2)cc(OC)c1O [Compound 87, 5-hydroxy-6-methoxy-2-(4′-hydroxy-3′,5′-dimethoxybenzoyl)quinoline]	–	0.471	–
